Laboratory results published in US10507216B2, “Method for olfactory improvement with saccharide” (priority 2017, dated 2019).

Assays:
[1] = test system: rat olfactory neuroepithelial cells (ONCs); assay: Western blot analysis of rat ONCs (βIII tubulin, OMP, Golf, ADCY3 relative to GAPDH); format: cell-based; details: day 9
Description: Olfactory neuroepithelia of rats were isolated from E17 embryos of wistar rats and 40 embryos per trial were used. After isolation, olfactory neuroepithelia were digested in Hanks' balanced salt solution (Roche Molecular Biochemicals, Indianapolis, Ind., USA) containing 0.125% Trypsin/EDTA for 30 minutes at 37° C. The cell suspension was then filtered through a 70 μm cell strainer to eliminate cell aggregates and debris, and adjusted to 24×10^4 cells/mL (equivalent to 5×10^4 cells/cm^2). Finally, a 2 mL cell suspension was added to six-wells coated with 0.85 μg/cm^2 poly-L-lysine (PLL). ONCs were cultured at 37° C. in a humidified 5% CO2 and 95% air atmosphere. Cell morphology was observed under an inverse phase contrast microscope (TS-100, Nikon, Tokyo, Japan) and scanning electron microscope (Hitachi S-4800).
ONC medium comprised DMEM/F12 (Invitrogen), 20 ng/mL bFGF, 20 ng/mL EGF, 2% B27 and 1% penicillin/streptomycin. To prepare the chitosan-containing medium for administration groups, chitosan (C-3646, Sigma, St. Louis, Mo.) was mixed with culture medium (0.1 mg/mL), and adjusted to pH 7.2 with NaOH. Particularly, chitosan solution was prepared by dissolving chitosan in 0.5 M acetic acid.
ONC lysates were obtained from individual culture wells using a RIPA lysis buffer containing protease inhibitor cocktail tablets (Roche Diagnostics GmbH). These samples were then denatured and separated by 12% SDS-PAGE gels, and blotted onto PVDF membranes (Millipore). After blocking in a CIS blocking buffer at room temperature for 60 seconds, the membranes were probed with various primary antibodies at 4° C. overnight. Membranes were incubated with horseradish peroxidase-conjugated secondary antibodies for 1.5 hours, and finally visualized using enhanced chemiluminescence (ECL; Millipore, Billerica, Mass.). After detachment of previous primary antibodies, the membranes were also probed with GAPDH antibodies, which served as an internal control. Images of western blotting were acquired by UVP BioSpectrum 810, and analyzed by Vision Works LS software (UVP, California, USA).
All the measurements were presented as mean±SD. Statistical significance was computed with one-way ANOVA followed by LSD test with p<0.05. All statistical analyses were conducted using Sigma plot v12.5.

[2] = test system: human olfactory neuroepithelial cells (ONCs); assay: Western blot analysis of human ONCs (OMP, Golf, βIII tubulin); format: cell-based; details: 0.1 mg/ml monosaccharide monomer, day 9
Description: Human olfactory neuroepithelia were harvested from adult olfactory neuroepithelium during endoscopic sinus surgery. Biopsy specimens were transferred into Hank's balanced salt solution (HBSS), minced finely, and then digested with 0.125% Trypsin/EDTA for 30 minutes at 37° C. After digestion, the pellet was collected by centrifuge and resuspended in the iscove's modified dulbecco's media (IMDM; Invitrogen, Calif., USA) with 10% fetal bovine serum and 1% penicillin/streptomycin Finally, they were seeded to six-wells coated with laminin-co-fibronectin for 21 days, incubated in a humidified atmosphere containing 5% CO2 and 95% air. After 21 days, the medium were changed with induction medium. This induction medium is Dulbecco's Modified Eagle Medium: Nutrient Mixture F-12 (DMEM/F12) (Invitrogen, Calif., USA) supplemented with 2% B-27 serum-free supplement. To prepare the chitosan-containing medium for administration groups, chitosan (C-3646, Sigma-Aldrich, St. Louis, Mo.) was mixed with induction medium (0.1 mg/ml), and adjusted to pH 7.2 with NaOH.
ONC lysates were obtained from individual culture wells using a RIPA lysis buffer containing protease inhibitor cocktail tablets (Roche Diagnostics GmbH). […] Images of western blotting were acquired by UVP BioSpectrum 810, and analyzed by Vision Works LS software (UVP, California, USA). […]

[3] = 0.1 mg/ml monosaccharide monomer

Molecule | expression levels of OMP and Golf [1, 3] | expression levels of OMP [2] | expression levels of OMP and Golf ([1]; 0.1 mg/ml proteoglycan or glycosaminoglycan)
CC(=O)N[C@H]1C(O)O[C@H](CO)[C@H](O)[C@@H]1O (stereo partly shown) [GalNAc, N-acetylgalactosamine] | promoted the maturation of ORNs | induced positive effects on human ONCs | 
N[C@H]1C(O)O[C@H](CO)[C@@H](O)[C@@H]1O (stereo partly shown) [GlcN, glucosamine] | promoted the maturation of ORNs |  | 
CC(=O)N[C@H]1C(O)O[C@H](CO)[C@@H](O)[C@@H]1O (stereo partly shown) [GlcNAc, N-acetylglucosamine] | promoted the maturation of ORNs |  | 
CC(=O)N[C@@H]1C(O)O[C@H](CO)[C@@H](O)[C@@H]1O (stereo partly drawn) [ManNAc, N-acetyl-D-mannosamine] | promoted the maturation of ORNs | induced positive effects on human ONCs | 
heparan sulfate proteoglycan [HSPG] |  |  | promoted expression of mature and functional ORNs
